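Growth conditions: 96-well plates. Treatment: test compound, 48 hours, 5 concentrations. Analysis: linear interpolation between bracketing concentrations; unreached endpoints set to highest concentration. Definition used: TGI = concentration required for complete inhibition of growth.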
Columns and labels:
Test in all cases: NCI tumour cell line growth inhibition, 48 h
[1] = tested on: SF-539 CNS
[2] = tested on: RXF 393 renal
[3] = tested on: NCI-H23 lung
[4] = tested on: UACC-62 melanoma
[5] = tested on: BT-549 breast
[6] = tested on: HCC-2998 colon
[7] = tested on: 786-0 renal
[8] = tested on: SF-295 CNS
[9] = tested on: SW-620 colon
[10] = tested on: SNB-19 CNS
[11] = tested on: HCT-116 colon
[12] = tested on: NCI-H460 lung
[13] = tested on: DU-145 prostate
[14] = tested on: M14 melanoma
[15] = tested on: OVCAR-3 ovarian
[16] = tested on: OVCAR-8 ovarian
[17] = tested on: SK-MEL-2 melanoma
[18] = tested on: OVCAR-4 ovarian
[19] = tested on: KM12 colon

| SMILES | TGI [1] [µM] | TGI [2] [µM] | TGI [3] [µM] | TGI [4] [µM] | TGI [5] [µM] | TGI [6] [µM] | TGI [7] [µM] | TGI [8] [µM] | TGI [9] [µM] | TGI [10] [µM] | TGI [11] [µM] | TGI [12] [µM] | TGI [13] [µM] | TGI [14] [µM] | TGI [15] [µM] | TGI [16] [µM] | TGI [17] [µM] | TGI [18] [µM] | TGI [19] [µM] |
| --- | --- | --- | --- | --- | --- | --- | --- | --- | --- | --- | --- | --- | --- | --- | --- | --- | --- | --- | --- |
| CC(C)C1OC23CCCCC2C(C#N)(C#N)C1(C#N)C(=N)O3 (centres undefined) | 39.4 | 46.4 | 85.8 | 58 | 39.8 | 29.6 | 34.4 | > 100 | 99.3 | > 100 | 39.8 | 32 | 94.8 | 29.8 | 59.8 | 49.8 | 76 |  |  |
| CC(=O)OCc1cc(CCC(=O)NCCNc2c3ccccc3nc3ccccc23)cc(COC(C)=O)c1O[Si](C)(C)C(C)(C)C | 4.99 | 9.37 | 34.7 | 19.5 | 34.2 |  | 31.3 | 11.7 | 30.1 | 31.2 | 31.1 | 21.6 | 28.1 | 23.2 | 5.68 | 39.9 | 23.8 | 21.1 | 15.4 |
| COc1ccc(N=C2SC(=N/N=c3\sc4ccccc4n3C)SC2=Nc2ccc(OC)cc2)cc1 | > 100 | > 100 | > 100 | > 100 | > 100 | > 100 | > 100 | > 100 | > 100 | > 100 | > 100 | > 100 | > 100 | > 100 | > 100 | > 100 | > 100 |  | > 100 |
| C[N+](C)([O-])CCC=C1c2ccccc2CCc2ccccc21 | > 100 | 39.8 | > 100 | 41.2 | > 100 |  | 19.2 | 70 | 62.3 | > 100 | > 100 | > 100 | 70.9 | > 100 | 58.8 | 52.6 | 36.8 | 97 | 36.3 |
| O=S(=O)(c1ccccc1)n1c2cc3cccnc3nc2c2cccnc21 |  | 90.9 | > 100 |  | > 100 | > 100 | > 100 | > 100 | > 100 | > 100 | > 100 | > 100 |  | > 100 | > 100 | > 100 | > 100 | > 100 | > 100 |
| COC(=O)C(C)(NC(=O)C(CC(=O)OC(C)(C)C)NC(=O)OC(C)(C)C)c1ccccc1 (centres undefined) | > 100 | > 100 | > 100 | > 100 | > 100 | > 100 | > 100 | > 100 | > 100 | > 100 | > 100 | > 100 | > 100 | > 100 | > 100 | > 100 |  |  | > 100 |

Reference: PubChem BioAssay (NCI)
